Test results taken from ChEMBL document CHEMBL6127040, “Discovery and optimization of isoliquiritigenin as a death-associated protein kinase 1 inhibitor” (Eur J Med Chem, 2024).

Molecular target: Death-associated protein kinase 1 (Homo sapiens, UniProt P53355)
Test: Binding affinity to DAPK1 (unknown origin) assessed as dissociation constant by ITC analysis

Chain of Death-associated protein kinase 1 (P53355 whole entry): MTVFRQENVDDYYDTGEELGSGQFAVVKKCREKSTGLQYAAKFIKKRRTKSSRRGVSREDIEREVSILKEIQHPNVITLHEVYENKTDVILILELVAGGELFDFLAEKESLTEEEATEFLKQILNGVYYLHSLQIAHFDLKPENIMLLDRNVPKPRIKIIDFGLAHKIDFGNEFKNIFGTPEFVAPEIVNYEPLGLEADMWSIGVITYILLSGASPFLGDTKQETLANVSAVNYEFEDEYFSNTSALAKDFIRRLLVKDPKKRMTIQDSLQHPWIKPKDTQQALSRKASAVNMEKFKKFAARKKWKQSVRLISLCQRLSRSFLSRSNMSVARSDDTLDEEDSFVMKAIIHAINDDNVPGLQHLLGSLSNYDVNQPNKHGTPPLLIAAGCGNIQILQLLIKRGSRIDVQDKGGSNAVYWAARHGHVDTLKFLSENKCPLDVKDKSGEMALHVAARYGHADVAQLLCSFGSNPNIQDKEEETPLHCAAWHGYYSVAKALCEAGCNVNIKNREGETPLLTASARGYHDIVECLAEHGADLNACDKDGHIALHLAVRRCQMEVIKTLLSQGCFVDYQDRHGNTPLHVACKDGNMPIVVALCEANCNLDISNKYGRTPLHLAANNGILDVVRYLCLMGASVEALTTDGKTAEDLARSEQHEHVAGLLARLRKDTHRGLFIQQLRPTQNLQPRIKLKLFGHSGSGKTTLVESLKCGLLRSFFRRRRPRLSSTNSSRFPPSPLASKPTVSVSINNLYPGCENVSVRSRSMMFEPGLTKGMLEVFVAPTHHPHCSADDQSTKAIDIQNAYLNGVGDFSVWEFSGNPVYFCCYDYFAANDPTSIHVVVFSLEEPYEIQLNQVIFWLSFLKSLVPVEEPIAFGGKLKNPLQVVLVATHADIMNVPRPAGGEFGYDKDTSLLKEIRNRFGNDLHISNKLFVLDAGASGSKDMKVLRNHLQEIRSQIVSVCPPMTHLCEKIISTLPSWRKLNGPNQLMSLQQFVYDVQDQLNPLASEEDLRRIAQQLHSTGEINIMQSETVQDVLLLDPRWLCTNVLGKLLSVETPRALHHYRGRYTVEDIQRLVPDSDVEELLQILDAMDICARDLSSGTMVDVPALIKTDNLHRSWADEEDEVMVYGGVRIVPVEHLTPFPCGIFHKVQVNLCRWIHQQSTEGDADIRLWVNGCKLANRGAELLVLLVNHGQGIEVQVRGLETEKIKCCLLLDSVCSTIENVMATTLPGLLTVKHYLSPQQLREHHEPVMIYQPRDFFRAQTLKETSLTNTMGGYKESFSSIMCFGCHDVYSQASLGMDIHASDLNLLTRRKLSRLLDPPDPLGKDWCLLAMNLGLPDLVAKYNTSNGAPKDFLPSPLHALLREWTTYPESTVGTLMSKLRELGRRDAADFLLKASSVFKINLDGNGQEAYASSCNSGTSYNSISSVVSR

O=C(/C=C/c1ccc(O)cc1)c1ccc(O)cc1O [ISOLIQUIRITIGENIN] gave a Kd of 2.48 µM.
